Reference: PMC11842588, “A first-in-class selective inhibitor of ERK1/2 and ERK5 overcomes drug resistance with a single-molecule strategy” (Signal Transduction and Targeted Therapy, 2025)

Columns and labels:
Assay in all cases: Kinase profiling
Assay type in all cases: biochemical
GAK(h) = molecular target: T1, GAK(h) (Homo sapiens, UniProt O14976)
T1 construct: purchased Eurofins Cerep SA (KinaseProfiler)
Experimental: (§1) 380 kinases inhibitory activities of SKLB-D18 were conducted by Eurofins Cerep SA. The result was illustrated by kinase tree (http://www.kinhub.org/kinmap/).

CDKL1(h) = molecular target: T2, CDKL1(h) (Homo sapiens, UniProt Q00532)
T2 construct: purchased Eurofins Cerep SA (KinaseProfiler)
Experimental: as §1

GRK2(h) = molecular target: T3, GRK2(h) (Homo sapiens, UniProt P25098)
T3 construct: purchased Eurofins Cerep SA (KinaseProfiler)
Experimental: as §1

CDK9/cyclin T1(h) = molecular target: T4, CDK9/cyclin T1(h) (Homo sapiens, UniProt P50750)
T4 construct: purchased Eurofins Cerep SA (KinaseProfiler)
Experimental: as §1

Hck(h) activated = molecular target: T5, Hck(h) activated (Homo sapiens, UniProt P08631)
T5 construct: purchased Eurofins Cerep SA (KinaseProfiler)
T5 sequence (P08631 whole entry): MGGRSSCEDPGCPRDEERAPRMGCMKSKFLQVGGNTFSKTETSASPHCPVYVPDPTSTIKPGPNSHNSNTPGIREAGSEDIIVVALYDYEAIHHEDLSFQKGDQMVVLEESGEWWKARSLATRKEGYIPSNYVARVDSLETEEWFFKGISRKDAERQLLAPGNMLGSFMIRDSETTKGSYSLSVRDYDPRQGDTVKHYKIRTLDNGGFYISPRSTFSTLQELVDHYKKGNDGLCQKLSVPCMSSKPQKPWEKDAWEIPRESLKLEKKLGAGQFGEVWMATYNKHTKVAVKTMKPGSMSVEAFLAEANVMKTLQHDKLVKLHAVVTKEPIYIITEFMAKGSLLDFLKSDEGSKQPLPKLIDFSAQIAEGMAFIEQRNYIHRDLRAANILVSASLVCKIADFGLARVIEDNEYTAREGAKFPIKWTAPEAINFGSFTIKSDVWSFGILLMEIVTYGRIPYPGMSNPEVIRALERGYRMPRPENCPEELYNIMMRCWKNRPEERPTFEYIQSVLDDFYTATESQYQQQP
Experimental: as §1

CDK5/p25(h) = molecular target: T6, CDK5/p25(h) (Homo sapiens, UniProt Q00535)
T6 construct: purchased Eurofins Cerep SA (KinaseProfiler)
Experimental: as §1

CaMKIγ(h) = molecular target: T7, CaMKIγ(h) (Homo sapiens, UniProt Q96NX5)
T7 construct: purchased Eurofins Cerep SA (KinaseProfiler)
Experimental: as §1

PAR-1Bα(h) = molecular target: T8, PAR-1Bα(h) (Homo sapiens, UniProt Q7KZI7)
T8 construct: purchased Eurofins Cerep SA (KinaseProfiler)
Experimental: as §1

CaMKIIγ(h) = molecular target: T9, CaMKIIγ(h) (Homo sapiens, UniProt Q13555)
T9 construct: purchased Eurofins Cerep SA (KinaseProfiler)
Experimental: as §1

MAK(h) = molecular target: T10, MAK(h) (Homo sapiens, UniProt P20794)
T10 construct: purchased Eurofins Cerep SA (KinaseProfiler)
T10 sequence (P20794 whole entry): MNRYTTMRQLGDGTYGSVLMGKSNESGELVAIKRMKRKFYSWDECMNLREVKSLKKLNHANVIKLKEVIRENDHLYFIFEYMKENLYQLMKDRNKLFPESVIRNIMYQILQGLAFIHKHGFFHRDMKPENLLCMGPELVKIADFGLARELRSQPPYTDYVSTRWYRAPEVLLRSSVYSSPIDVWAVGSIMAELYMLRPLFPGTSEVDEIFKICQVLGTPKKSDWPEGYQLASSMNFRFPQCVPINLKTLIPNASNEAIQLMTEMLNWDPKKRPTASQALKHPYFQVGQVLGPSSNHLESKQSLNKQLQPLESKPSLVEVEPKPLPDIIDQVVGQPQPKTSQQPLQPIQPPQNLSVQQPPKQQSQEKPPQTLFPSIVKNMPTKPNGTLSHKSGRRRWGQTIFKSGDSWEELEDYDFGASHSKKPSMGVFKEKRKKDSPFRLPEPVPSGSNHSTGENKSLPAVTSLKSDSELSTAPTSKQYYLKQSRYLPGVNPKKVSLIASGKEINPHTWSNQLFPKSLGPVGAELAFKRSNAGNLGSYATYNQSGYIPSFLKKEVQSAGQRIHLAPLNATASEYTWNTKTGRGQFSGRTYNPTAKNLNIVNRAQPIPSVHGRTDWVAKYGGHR
Experimental: as §1

Mer(h) = molecular target: T11, Mer(h) (Homo sapiens, UniProt Q12866)
T11 construct: purchased Eurofins Cerep SA (KinaseProfiler)
Experimental: as §1

DMPK(h) = molecular target: T12, DMPK(h) (Homo sapiens, UniProt Q09013)
T12 construct: purchased Eurofins Cerep SA (KinaseProfiler)
Experimental: as §1

EphA7(h) = molecular target: T13, EphA7(h) (Homo sapiens, UniProt Q15375)
T13 construct: purchased Eurofins Cerep SA (KinaseProfiler)
T13 sequence (Q15375 28-998): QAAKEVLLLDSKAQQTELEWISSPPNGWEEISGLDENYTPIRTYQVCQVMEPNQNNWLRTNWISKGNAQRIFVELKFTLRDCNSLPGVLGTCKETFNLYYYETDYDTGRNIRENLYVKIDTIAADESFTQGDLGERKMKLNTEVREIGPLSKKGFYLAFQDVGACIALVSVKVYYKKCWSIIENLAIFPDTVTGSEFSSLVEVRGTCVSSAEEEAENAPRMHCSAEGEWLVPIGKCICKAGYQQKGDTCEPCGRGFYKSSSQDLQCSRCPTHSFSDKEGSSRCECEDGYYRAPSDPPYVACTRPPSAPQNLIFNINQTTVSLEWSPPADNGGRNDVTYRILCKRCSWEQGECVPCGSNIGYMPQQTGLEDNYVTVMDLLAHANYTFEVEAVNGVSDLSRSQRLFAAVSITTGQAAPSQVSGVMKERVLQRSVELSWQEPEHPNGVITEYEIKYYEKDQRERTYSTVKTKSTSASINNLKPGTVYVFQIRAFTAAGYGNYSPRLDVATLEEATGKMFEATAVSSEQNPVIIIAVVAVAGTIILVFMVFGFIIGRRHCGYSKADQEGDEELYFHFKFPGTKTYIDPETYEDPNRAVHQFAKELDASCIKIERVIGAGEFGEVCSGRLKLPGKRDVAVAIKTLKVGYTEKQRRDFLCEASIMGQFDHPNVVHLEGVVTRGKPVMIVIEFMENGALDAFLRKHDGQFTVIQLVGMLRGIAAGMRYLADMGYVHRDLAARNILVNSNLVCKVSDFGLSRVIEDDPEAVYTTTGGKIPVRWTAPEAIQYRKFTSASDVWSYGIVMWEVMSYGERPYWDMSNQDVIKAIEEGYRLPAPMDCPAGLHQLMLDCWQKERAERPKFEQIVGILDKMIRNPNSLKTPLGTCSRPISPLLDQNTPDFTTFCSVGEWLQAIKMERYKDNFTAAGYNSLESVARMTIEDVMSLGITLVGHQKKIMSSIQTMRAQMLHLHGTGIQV
Experimental: as §1

ACK1(h) = molecular target: T14, ACK1(h) (Homo sapiens, UniProt Q07912)
T14 construct: purchased Eurofins Cerep SA (KinaseProfiler)
Experimental: as §1

EphB1(h) = molecular target: T15, EphB1(h) (Homo sapiens, UniProt P54762)
T15 construct: purchased Eurofins Cerep SA (KinaseProfiler)
Experimental: as §1

TAO1(h) = molecular target: T16, TAO1(h) (Homo sapiens, UniProt Q7L7X3)
T16 construct: purchased Eurofins Cerep SA (KinaseProfiler)
Experimental: as §1

c-RAF(h) = molecular target: T17, c-RAF(h) (Homo sapiens, UniProt P04049)
T17 construct: purchased Eurofins Cerep SA (KinaseProfiler)
Experimental: as §1

TLK1(h) = molecular target: T18, TLK1(h) (Homo sapiens, UniProt Q9UKI8)
T18 construct: purchased Eurofins Cerep SA (KinaseProfiler)
Experimental: as §1

BRK(h) = molecular target: T19, BRK(h) (Homo sapiens, UniProt Q13882)
T19 construct: purchased Eurofins Cerep SA (KinaseProfiler)
Experimental: as §1

CRIK(h) = molecular target: T20, CRIK(h) (Homo sapiens, UniProt O14578)
T20 construct: purchased Eurofins Cerep SA (KinaseProfiler)
Experimental: as §1

Haspin(h) = molecular target: T21, Haspin(h) (Homo sapiens, UniProt Q8TF76)
T21 construct: purchased Eurofins Cerep SA (KinaseProfiler)
T21 sequence (Q8TF76 whole entry): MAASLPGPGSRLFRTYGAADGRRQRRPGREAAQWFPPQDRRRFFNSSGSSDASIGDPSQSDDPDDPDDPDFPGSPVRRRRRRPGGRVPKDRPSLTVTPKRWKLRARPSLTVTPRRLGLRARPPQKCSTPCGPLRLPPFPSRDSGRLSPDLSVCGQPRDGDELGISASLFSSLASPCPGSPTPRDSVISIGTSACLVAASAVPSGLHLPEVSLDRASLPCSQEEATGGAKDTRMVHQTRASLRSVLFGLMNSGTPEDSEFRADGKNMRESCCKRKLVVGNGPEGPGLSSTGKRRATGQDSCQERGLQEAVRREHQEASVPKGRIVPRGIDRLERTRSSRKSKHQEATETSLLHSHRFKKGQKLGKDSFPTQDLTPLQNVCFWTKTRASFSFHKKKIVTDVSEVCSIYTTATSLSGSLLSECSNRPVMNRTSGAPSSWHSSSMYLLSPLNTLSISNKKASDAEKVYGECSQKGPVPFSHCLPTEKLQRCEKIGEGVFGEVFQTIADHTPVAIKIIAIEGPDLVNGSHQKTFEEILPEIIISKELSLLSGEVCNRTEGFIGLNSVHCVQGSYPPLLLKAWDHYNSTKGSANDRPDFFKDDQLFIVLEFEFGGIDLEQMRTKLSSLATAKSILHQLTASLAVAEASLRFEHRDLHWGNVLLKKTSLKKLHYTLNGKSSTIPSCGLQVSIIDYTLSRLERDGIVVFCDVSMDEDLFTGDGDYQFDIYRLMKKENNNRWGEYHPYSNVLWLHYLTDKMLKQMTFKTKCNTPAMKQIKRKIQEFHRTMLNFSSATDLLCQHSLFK
Experimental: as §1

HPK1(h) = molecular target: T22, HPK1(h) (Homo sapiens, UniProt Q92918)
T22 construct: purchased Eurofins Cerep SA (KinaseProfiler)
Experimental: as §1

SIK(h) = molecular target: T23, SIK(h) (Homo sapiens, UniProt P57059)
T23 construct: purchased Eurofins Cerep SA (KinaseProfiler)
Experimental: as §1

AAK1(h) = molecular target: T24, AAK1(h) (Homo sapiens, UniProt Q2M2I8)
T24 construct: purchased Eurofins Cerep SA (KinaseProfiler)
Experimental: as §1

Fes(h) = molecular target: T25, Fes(h) (Homo sapiens, UniProt P07332)
T25 construct: purchased Eurofins Cerep SA (KinaseProfiler)
T25 sequence (P07332 whole entry): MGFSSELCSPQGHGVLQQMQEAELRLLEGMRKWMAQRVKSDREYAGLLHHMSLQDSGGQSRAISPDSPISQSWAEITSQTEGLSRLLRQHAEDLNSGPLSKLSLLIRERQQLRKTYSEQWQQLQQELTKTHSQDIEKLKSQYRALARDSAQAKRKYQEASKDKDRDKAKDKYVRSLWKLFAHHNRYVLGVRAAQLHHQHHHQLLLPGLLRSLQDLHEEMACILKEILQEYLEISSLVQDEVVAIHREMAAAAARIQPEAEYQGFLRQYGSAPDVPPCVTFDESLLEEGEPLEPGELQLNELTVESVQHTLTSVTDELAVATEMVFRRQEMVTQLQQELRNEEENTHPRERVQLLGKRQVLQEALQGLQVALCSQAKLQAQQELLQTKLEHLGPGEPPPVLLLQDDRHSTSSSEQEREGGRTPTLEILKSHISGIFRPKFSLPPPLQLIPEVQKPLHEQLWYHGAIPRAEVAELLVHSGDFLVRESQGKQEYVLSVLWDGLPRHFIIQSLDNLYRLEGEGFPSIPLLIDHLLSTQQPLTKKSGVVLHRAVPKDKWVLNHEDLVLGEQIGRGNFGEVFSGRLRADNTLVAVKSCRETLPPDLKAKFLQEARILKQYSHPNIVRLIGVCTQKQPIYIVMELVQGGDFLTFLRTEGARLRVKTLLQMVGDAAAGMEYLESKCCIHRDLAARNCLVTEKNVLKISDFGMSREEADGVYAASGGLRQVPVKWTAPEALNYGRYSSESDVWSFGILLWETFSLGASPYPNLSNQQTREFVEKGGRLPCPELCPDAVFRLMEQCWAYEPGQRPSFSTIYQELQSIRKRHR
Experimental: as §1

Mnk2(h) = molecular target: T26, Mnk2(h) (Homo sapiens, UniProt Q9HBH9)
T26 construct: purchased Eurofins Cerep SA (KinaseProfiler)
Experimental: as §1

MEKK2(h) = molecular target: T27, MEKK2(h) (Homo sapiens, UniProt Q9Y2U5)
T27 construct: purchased Eurofins Cerep SA (KinaseProfiler)
Experimental: as §1

EphB2(h) = molecular target: T28, EphB2(h) (Homo sapiens, UniProt P29323)
T28 construct: purchased Eurofins Cerep SA (KinaseProfiler)
Experimental: as §1

CHK1(h) = molecular target: T29, CHK1(h) (Homo sapiens, UniProt O14757)
T29 construct: purchased Eurofins Cerep SA (KinaseProfiler)
Experimental: as §1

STK25(h) = molecular target: T30, STK25(h) (Homo sapiens, UniProt O00506)
T30 construct: purchased Eurofins Cerep SA (KinaseProfiler)
Experimental: as §1

Ros(h) = molecular target: T31, Ros(h) (Homo sapiens, UniProt P08922)
T31 construct: purchased Eurofins Cerep SA (KinaseProfiler)
Experimental: as §1

MLK4(h) = molecular target: T32, MLK4(h) (Homo sapiens, UniProt Q5TCX8)
T32 construct: purchased Eurofins Cerep SA (KinaseProfiler)
Experimental: as §1

MLK1(h) = molecular target: T33, MLK1(h) (Homo sapiens, UniProt P80192)
T33 construct: purchased Eurofins Cerep SA (KinaseProfiler)
Experimental: as §1

HIPK1(h) = molecular target: T34, HIPK1(h) (Homo sapiens, UniProt Q86Z02)
T34 construct: purchased Eurofins Cerep SA (KinaseProfiler)
Experimental: as §1

IR(h), activated = molecular target: T35, IR(h), activated (Homo sapiens, UniProt P06213)
T35 construct: purchased Eurofins Cerep SA (KinaseProfiler)
Experimental: as §1

ATM(h) = molecular target: T36, ATM(h) (Homo sapiens, UniProt Q13315)
T36 construct: purchased Eurofins Cerep SA (KinaseProfiler)
Experimental: as §1

PI3KC2a(h) = molecular target: T37, PI3KC2a(h) (Homo sapiens, UniProt O00443)
T37 construct: purchased Eurofins Cerep SA (KinaseProfiler)
Experimental: as §1

CLK2(h) = molecular target: T38, CLK2(h) (Homo sapiens, UniProt P49760)
T38 construct: purchased Eurofins Cerep SA (KinaseProfiler)
Experimental: as §1

PKD2(h) = molecular target: T39, PKD2(h) (Homo sapiens, UniProt Q9BZL6)
T39 construct: purchased Eurofins Cerep SA (KinaseProfiler)
Experimental: as §1

PAK6(h) = molecular target: T40, PAK6(h) (Homo sapiens, UniProt Q9NQU5)
T40 construct: purchased Eurofins Cerep SA (KinaseProfiler)
Experimental: as §1

JAK3(h) = molecular target: T41, JAK3(h) (Homo sapiens, UniProt P52333)
T41 construct: purchased Eurofins Cerep SA (KinaseProfiler)
T41 sequence (P52333 whole entry): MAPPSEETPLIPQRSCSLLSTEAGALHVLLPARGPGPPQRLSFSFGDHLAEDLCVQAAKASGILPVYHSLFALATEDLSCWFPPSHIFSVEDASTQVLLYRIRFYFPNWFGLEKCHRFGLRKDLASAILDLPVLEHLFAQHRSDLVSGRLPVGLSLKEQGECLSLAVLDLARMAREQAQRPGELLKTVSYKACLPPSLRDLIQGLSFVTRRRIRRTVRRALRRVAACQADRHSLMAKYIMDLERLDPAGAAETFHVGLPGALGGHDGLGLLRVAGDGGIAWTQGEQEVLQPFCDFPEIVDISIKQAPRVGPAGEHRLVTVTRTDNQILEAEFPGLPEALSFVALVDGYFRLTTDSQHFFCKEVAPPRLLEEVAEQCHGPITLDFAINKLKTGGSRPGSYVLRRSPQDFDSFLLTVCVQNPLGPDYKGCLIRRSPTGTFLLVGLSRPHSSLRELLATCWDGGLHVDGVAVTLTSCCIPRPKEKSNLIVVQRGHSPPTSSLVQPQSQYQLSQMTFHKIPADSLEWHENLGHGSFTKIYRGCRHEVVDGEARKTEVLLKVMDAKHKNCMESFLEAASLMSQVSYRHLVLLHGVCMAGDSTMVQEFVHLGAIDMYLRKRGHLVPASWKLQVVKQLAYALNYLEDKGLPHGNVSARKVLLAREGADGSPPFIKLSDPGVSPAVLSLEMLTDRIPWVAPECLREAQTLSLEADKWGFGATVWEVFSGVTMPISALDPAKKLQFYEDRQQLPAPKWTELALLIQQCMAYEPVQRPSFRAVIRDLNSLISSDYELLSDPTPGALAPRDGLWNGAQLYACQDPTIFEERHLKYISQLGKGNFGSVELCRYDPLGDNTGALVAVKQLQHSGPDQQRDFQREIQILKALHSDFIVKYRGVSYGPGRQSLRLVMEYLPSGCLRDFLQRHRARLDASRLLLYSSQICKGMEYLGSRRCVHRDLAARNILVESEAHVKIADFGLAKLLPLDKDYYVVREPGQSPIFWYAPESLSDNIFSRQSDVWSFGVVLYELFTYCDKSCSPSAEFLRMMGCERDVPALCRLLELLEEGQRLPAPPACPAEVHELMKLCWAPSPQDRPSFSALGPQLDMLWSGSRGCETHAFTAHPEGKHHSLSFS
Experimental: as §1

CN(C)Cc1cccc(Nc2ncc(Cl)c(-c3csc(C(=O)NN4CCOCC4)c3)n2)c1 [SKLB-D18, 4-(5-chloro-2-((3-((dimethylamino)methyl)phenyl)amino)pyrimidin-4-yl)-N-morpholinothiophene-2-carboxamide]
inhibition at 1 µM (GAK(h)): 78%
inhibition at 1 µM (CDKL1(h)): 48%
inhibition at 1 µM (GRK2(h)): 3%
inhibition at 1 µM (CDK9/cyclin T1(h)): 28%
inhibition at 1 µM (Hck(h) activated): 32%
inhibition at 1 µM (CDK5/p25(h)): 55%
inhibition at 1 µM (CaMKIγ(h)): 12%
inhibition at 1 µM (PAR-1Bα(h)): 65%
inhibition at 1 µM (CaMKIIγ(h)): 50%
inhibition at 1 µM (MAK(h)): 46%
inhibition at 1 µM (Mer(h)): 69%
inhibition at 1 µM (DMPK(h)): 8%
inhibition at 1 µM (EphA7(h)): 38%
inhibition at 1 µM (ACK1(h)): 14%
inhibition at 1 µM (EphB1(h)): 23%
inhibition at 1 µM (TAO1(h)): 62%
inhibition at 1 µM (c-RAF(h)): 65%
inhibition at 1 µM (TLK1(h)): 24%
inhibition at 1 µM (BRK(h)): 32%
inhibition at 1 µM (CRIK(h)): 19%
inhibition at 1 µM (Haspin(h)): 12%
inhibition at 1 µM (HPK1(h)): 68%
inhibition at 1 µM (SIK(h)): 26%
inhibition at 1 µM (AAK1(h)): 58%
inhibition at 1 µM (Fes(h)): 53%
inhibition at 1 µM (Mnk2(h)): 59%
inhibition at 1 µM (MEKK2(h)): 53%
inhibition at 1 µM (EphB2(h)): -1%
inhibition at 1 µM (CHK1(h)): 36%
inhibition at 1 µM (STK25(h)): 7%
inhibition at 1 µM (Ros(h)): -4%
inhibition at 1 µM (MLK4(h)): 24%
inhibition at 1 µM (MLK1(h)): 61%
inhibition at 1 µM (HIPK1(h)): 68%
inhibition at 1 µM (IR(h), activated): 13%
inhibition at 1 µM (ATM(h)): 7%
inhibition at 1 µM (PI3KC2a(h)): 1%
inhibition at 1 µM (CLK2(h)): 58%
inhibition at 1 µM (PKD2(h)): 66%
inhibition at 1 µM (PAK6(h)): 10%
inhibition at 1 µM (JAK3(h)): 67%
